Here are results for 18 compounds from patent US8410132B2, “Modulators of cystic fibrosis transmembrane conductance regulator” (Vertex Pharmaceuticals Incorporated, priority 2007, dated 2013).

The target in the assay is T1, ΔF508-CFTR (Homo sapiens, UniProt P13569, DEL508-508).
T1 construct: expressed in transfected cells; host or cells: Fisher rat epithelial (FRT) cells expressing ΔF508-CFTR (Ussing chamber); NIH3T3 cells stably expressing ΔF508-CFTR (whole-cell recordings)
In words: Assay for detecting and measuring ΔF508-CFTR potentiation properties of compounds (membrane potential optical method / Ussing chamber). The assay is classed as cell-based. To be noted: for Emax: relative efficacy, efficacy compared to that of the known potentiator genistein; for EC50: ΔF508-CFTR potentiation. The source says: Assays for Detecting and Measuring ΔF508-CFTR Potentiation Properties of Compounds
Membrane Potential Optical Methods for Assaying ΔF508-CFTR Modulation Properties of Compounds
The optical membrane potential assay utilized voltage-sensitive FRET sensors described by Gonzalez and Tsien (See, Gonzalez, J. E. and R. Y. Tsien (1995) “Voltage sensing by fluorescence resonance energy transfer in single cells” Biophys J 69(4): 1272-80, and Gonzalez, J. E. and R. Y. Tsien (1997) “Improved indicators of cell membrane potential that use fluorescence resonance energy transfer” Chem Biol 4(4): 269-77) in combination with instrumentation for measuring fluorescence changes such as the Voltage/Ion Probe Reader (VIPR) (See, Gonzalez, J. E., K. Oades, et al. (1999) “Cell-based assays and instrumentation for screening ion-channel targets” Drug Discov Today 4(9): 431-439).
These voltage sensitive assays are based on the change in fluorescence resonant energy transfer (FRET) between the membrane-soluble, voltage-sensitive dye, DiSBAC2(3), and a fluorescent phospholipid, CC2-DMPE, which is attached to the outer leaflet of the plasma membrane and acts as a FRET donor. Changes in membrane potential (Vm) cause the negatively charged DiSBAC2(3) to redistribute across the plasma membrane and the amount of energy transfer from CC2-DMPE changes accordingly. The changes in fluorescence emission were monitored using VIPR™ II, which is an integrated liquid handler and fluorescent detector designed to conduct cell-based screens in 96- or 384-well microtiter plates.
Identification of Potentiator Compounds
Typical protocol utilized a basolateral to apical membrane Cl^− concentration gradient. To set up this gradient, normal ringers was used on the basolateral membrane and was permeabilized with nystatin (360 μg/ml), whereas apical NaCl was replaced by equimolar sodium gluconate (titrated to pH 7.4 with NaOH) to give a large Cl^− concentration gradient across the epithelium. All experiments were performed 30 min after nystatin permeabilization. Forskolin (10 μM) and all test compounds were added to both sides of the cell culture inserts. The efficacy of the putative ΔF508-CFTR potentiators was compared to that of the known potentiator, genistein.
Fisher rat epithelial (FRT) cells expressing ΔF508-CFTR (FRTΔ^F508-CFTR) were used for Ussing chamber experiments for the putative ΔF508-CFTR modulators identified from our optical assays. The cells were cultured on Costar Snapwell cell culture inserts and cultured for five days at 37° C. and 5% CO2 in Coon's modified Ham's F-12 medium supplemented with 5% fetal calf serum, 100 U/ml penicillin, and 100 μg/ml streptomycin. Prior to use for characterizing the potentiator activity of compounds, the cells were incubated at 27° C. for 16-48 hrs to correct for the ΔF508-CFTR. To determine the activity of corrections compounds, the cells were incubated at 27° C. or 37° C. with and without the compounds for 24 hours.
Compounds of the invention are useful as modulators of ATP binding cassette transporters. Table 3 below illustrates the EC50 and relative efficacy of certain embodiments in Table 1.

T1 sequence (P13569 with tags, fused parts or gaps DEL508-508): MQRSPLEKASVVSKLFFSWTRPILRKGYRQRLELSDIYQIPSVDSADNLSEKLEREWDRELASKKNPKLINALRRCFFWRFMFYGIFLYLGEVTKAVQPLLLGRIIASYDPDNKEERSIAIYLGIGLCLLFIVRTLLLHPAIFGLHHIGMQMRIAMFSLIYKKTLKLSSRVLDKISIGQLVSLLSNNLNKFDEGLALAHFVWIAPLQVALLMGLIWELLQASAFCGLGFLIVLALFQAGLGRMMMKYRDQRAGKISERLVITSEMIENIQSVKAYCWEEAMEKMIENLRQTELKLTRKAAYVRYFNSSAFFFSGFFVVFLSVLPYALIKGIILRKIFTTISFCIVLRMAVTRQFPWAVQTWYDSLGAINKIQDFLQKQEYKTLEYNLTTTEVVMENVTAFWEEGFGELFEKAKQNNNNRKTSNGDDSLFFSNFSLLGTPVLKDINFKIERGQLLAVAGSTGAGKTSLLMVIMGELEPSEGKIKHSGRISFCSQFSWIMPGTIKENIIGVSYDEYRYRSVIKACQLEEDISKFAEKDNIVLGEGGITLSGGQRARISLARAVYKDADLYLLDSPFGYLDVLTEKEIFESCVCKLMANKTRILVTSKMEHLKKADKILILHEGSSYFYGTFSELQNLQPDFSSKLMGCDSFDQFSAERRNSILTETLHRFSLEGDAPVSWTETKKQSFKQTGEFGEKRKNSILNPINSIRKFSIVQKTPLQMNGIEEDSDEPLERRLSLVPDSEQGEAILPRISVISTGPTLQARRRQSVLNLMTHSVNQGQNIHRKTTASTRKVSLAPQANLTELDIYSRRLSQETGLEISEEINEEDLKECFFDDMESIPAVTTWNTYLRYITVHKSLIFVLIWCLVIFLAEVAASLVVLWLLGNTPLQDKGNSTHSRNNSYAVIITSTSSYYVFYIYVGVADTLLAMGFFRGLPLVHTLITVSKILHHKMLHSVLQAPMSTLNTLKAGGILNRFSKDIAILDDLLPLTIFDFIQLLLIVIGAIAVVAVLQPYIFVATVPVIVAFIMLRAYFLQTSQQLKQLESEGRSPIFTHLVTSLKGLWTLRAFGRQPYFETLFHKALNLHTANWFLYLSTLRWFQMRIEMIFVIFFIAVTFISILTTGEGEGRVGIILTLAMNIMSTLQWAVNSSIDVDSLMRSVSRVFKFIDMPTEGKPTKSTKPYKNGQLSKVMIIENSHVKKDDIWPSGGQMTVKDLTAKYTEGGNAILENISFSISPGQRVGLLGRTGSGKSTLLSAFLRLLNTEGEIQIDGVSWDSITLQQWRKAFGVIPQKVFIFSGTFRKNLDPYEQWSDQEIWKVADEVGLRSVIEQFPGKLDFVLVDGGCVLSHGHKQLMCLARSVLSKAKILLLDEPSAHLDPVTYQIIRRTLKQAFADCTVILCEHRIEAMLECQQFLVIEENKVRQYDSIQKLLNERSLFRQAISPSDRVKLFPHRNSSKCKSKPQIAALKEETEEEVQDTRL

Broadly, the Emax is the size of the effect at its maximum, as opposed to the concentration needed. A word on the EC50: it is the concentration at which the effect is half-maximal. On to `O=C(Nc1cc2[nH]ccc2cc1C(F)(F)F)c1c[nH]c2cnccc2c1=O` [Cmpd 14, 4-oxo-N-(5-(trifluoromethyl)-1H-indol-6-yl)-1,4-dihydro-1,7-naphthyridine-3-carboxamide], for which the maximal effect (Emax) was in the range of 25 to 100% and the half-maximal effective concentration (EC50) was < 10 µM.

Regarding `O=C(Nc1ccc2c(C(F)(F)F)c[nH]c2c1)c1c[nH]c2cnccc2c1=O` [Cmpd 16, 4-oxo-N-(3-(trifluoromethyl)-1H-indol-6-yl)-1,4-dihydro-1,7-naphthyridine-3-carboxamide], the Emax fell in the range of 25 to 100% and the 50% effective concentration (EC50) was < 10 µM.

For the compound `Cc1cc2c(=O)c(C(=O)Nc3cc(O)c(C4(C)CCCCC4)cc3F)c[nH]c2cn1` [Cmpd 17, N-(2-fluoro-5-hydroxy-4-(1-methylcyclohexyl)phenyl)-6-methyl-4-oxo-1,4-dihydro-1,7-naphthyridine-3-carboxamide], the maximal response (Emax) is < 25% and the EC50 was 10 to 25 µM.

For `O=C(Nc1ccccc1-c1ccccc1)c1c[nH]c2ccncc2c1=O` [Cmpd 5, N-(biphenyl-2-yl)-4-oxo-1,4-dihydro-1,6-naphthyridine-3-carboxamide], the Emax fell in the range of 25 to 100% and the concentration giving a half-maximal response (EC50) is < 10 µM.

Regarding `O=C(Nc1ccc(N2CCCC2)cc1C(F)(F)F)c1c[nH]c2ccncc2c1=O` [Cmpd 7, 4-oxo-N-(4-(pyrrolidin-1-yl)-2-(trifluoromethyl)phenyl)-1,4-dihydro-1,6-naphthyridine-3-carboxamide], the Emax is 25 to 100% and the EC50 was < 10 µM.

Turning to `C[C@H]1CCCN1c1ccc(NC(=O)c2c[nH]c3cnccc3c2=O)c(C(F)(F)F)c1` [Cmpd 12, (S)-N-(4-(2-methylpyrrolidin-1-yl)-2-(trifluoromethyl)phenyl)-4-oxo-1,4-dihydro-1,7-naphthyridine-3-carboxamide], the Emax was in the range of 25 to 100% and the EC50 was < 10 µM.

With `CC(C)(C)c1cc(C(C)(C)C)c(NC(=O)c2c[nH]c3cnccc3c2=O)cc1O` [Cmpd 9, N-(2,4-di-tert-butyl-5-hydroxyphenyl)-4-oxo-1,4-dihydro-1,7-naphthyridine-3-carboxamide], the maximum response (Emax) was in the range of 25 to 100% and the EC50 was < 10 µM.

Take `Cc1cc2c(=O)c(C(=O)Nc3cc4[nH]ccc4cc3C(F)(F)F)c[nH]c2cn1` [Cmpd 15, 6-methyl-4-oxo-N-(5-(trifluoromethyl)-1H-indol-6-yl)-1,4-dihydro-1,7-naphthyridine-3-carboxamide]: the Emax fell in the range of 25 to 100% and the 50% effective concentration (EC50) is < 10 µM.

With `CCCc1ccccc1NC(=O)c1c[nH]c2ccncc2c1=O` [Cmpd 3, 4-oxo-N-(2-propylphenyl)-1,4-dihydro-1,6-naphthyridine-3-carboxamide], the maximal response (Emax) lay in the range of 25 to 100% and the EC50 was < 10 µM.

In the case of `O=C(Nc1ccc2cc[nH]c2c1)c1c[nH]c2ccncc2c1=O` [Cmpd 6, N-(1H-indol-6-yl)-4-oxo-1,4-dihydro-1,6-naphthyridine-3-carboxamide], the Emax is < 25% and the EC50 is < 10 µM.

`CC(C)(C)c1cc2cc[nH]c2cc1NC(=O)c1c[nH]c2cnccc2c1=O` [Cmpd 10, N-(5-tert-butyl-1H-indol-6-yl)-4-oxo-1,4-dihydro-1,7-naphthyridine-3-carboxamide]: the Emax is 25 to 100% and the EC50 is < 10 µM.

For the compound `O=C(NCC(c1ccccc1)c1ccccc1)c1c[nH]c2ccncc2c1=O` [Cmpd 2, N-(2,2-diphenylethyl)-4-oxo-1,4-dihydro-1,6-naphthyridine-3-carboxamide], the maximal effect (Emax) fell in the range of 25 to 100% and the half-maximal effective concentration (EC50) is < 10 µM.

For `O=C(NC(c1ccccc1)c1ccccc1)c1c[nH]c2ccncc2c1=O` [Cmpd 1, N-benzhydryl-4-oxo-1,4-dihydro-1,6-naphthyridine-3-carboxamide], the Emax is > 100% and the EC50 is < 10 µM.

With `CC1(C)CCCN(c2ccc(NC(=O)c3c[nH]c4cnccc4c3=O)c(C(F)(F)F)c2)C1` [Cmpd 18, N-(4-(3,3-dimethylpiperidin-l-yl)-2-(trifluoromethyl)phenyl)-4-oxo-1,4-dihydro-1,7-naphthyridine-3-carboxamide], the maximal effect (Emax) lay in the range of 25 to 100% and the EC50 is < 10 µM.

Turning to `CC1(c2cc(F)c(NC(=O)c3c[nH]c4cnccc4c3=O)cc2O)CCCCC1` [Cmpd 13, N-(2-fluoro-5-hydroxy-4-(1-methylcyclohexyl)phenyl)-4-oxo-1,4-dihydro-1,7-naphthyridine-3-carboxamide], the Emax is 25 to 100% and the EC50 was < 10 µM.

Regarding `O=C(Nc1ccc(N2CCCC2)cc1C(F)(F)F)c1c[nH]c2cnccc2c1=O` [Cmpd 11, 4-oxo-N-(4-(pyrrolidin-1-yl)-2-(trifluoromethyl)phenyl)-1,4-dihydro-1,7-naphthyridine-3-carboxamide], the Emax lay in the range of 25 to 100% and the EC50 was < 10 µM.

For the compound `O=C(NCC1(c2ccc(OC(F)(F)F)cc2)CCCC1)c1c[nH]c2ccncc2c1=O` [Cmpd 8, 4-oxo-N-((1-(4-(trifluoromethoxy)phenyl)-cyclopentyl)methyl)-1,4-dihydro-1,6-naphthyridine-3-carboxamide], the maximal effect (Emax) lay in the range of 25 to 100% and the concentration giving a half-maximal response (EC50) was < 10 µM.

In the case of `CC(C)c1ccccc1NC(=O)c1c[nH]c2ccncc2c1=O` [Cmpd 4, N-(2-isopropylphenyl)-4-oxo-1,4-dihydro-1,6-naphthyridine-3-carboxamide], the maximal response (Emax) fell in the range of 25 to 100% and the EC50 is < 10 µM.
